Data: patent publication US9974795B2, “Anticancer agent composition” (CARNA BIOSCIENCES, INC., priority 2014, dated 2018)

What was measured:
Colo205 cells = test: FACS of PI-stained cells: cell cycle and rate of cell death (SubG1), Colo205; format: cell-based; settings: for cell death induced by Cdc7 inhibitor on coadministration with Wee1 inhibitor MK-1775: Cdc7 inhibitor 0.1 μM, MK-1775 0.25, 0.5, 0.75 μM, FIG. 1 / FIG. 5; for cell death on coadministration with Chk1 inhibitor SCH900776: Cdc7 inhibitor 0.3 μM or 0.1 μM, SCH900776 3.3 μM, FIG. 9; for cell death on coadministration with Chk1 inhibitor UCN-01 / cell death on coadministration with Hsp90 inhibitor geldanamycin: Cdc7 inhibitor 0.1, 0.03 or 0.3 μM; for cell death on coadministration with Chk1 inhibitor UCN-01: UCN-01 333 nM, FIG. 10; for cell death on coadministration with Hsp90 inhibitor geldanamycin: geldanamycin 10 nM or 33 nM, FIG. 11
Description: (§1) COLO205 (RCB2127, RIKEN BRC) was cultured in a 10-cm dish using an RPMI-1640 medium (Sigma-Aldrich Corp., R8758) supplemented with 10% FCS (Equitech-Bio, Inc.) and 5% penicillin-streptomycin (GIBCO/Thermo Fisher Scientific, Inc., 15140). The medium was removed from the cells in a well grown state (70 to 90% confluent), and the cells were dissociated from the dish by treatment with 2 mL of trypsin (TrypL Express, manufactured by GIBCO/Thermo Fisher Scientific, Inc.) and recovered into the same medium as above.
(§2) The recovered cells of each line were seeded at 2.5×10^5 cells/ml/well to a 6-well plate (BD Falcon, catalog No. 353046). The cells were cultured overnight in a 5% CO2 incubator. On the next day, 500 μl of a medium supplemented with 1.5 μl of a stock solution having a 1000-fold concentration of each compound to be added was added to each well, […]
(§3) After the reaction of the cells with the compound for 48 to 72 hours, the cells were dissociated from the well by treatment with trypsin (TrypL Express, manufactured by GIBCO/Thermo Fisher Scientific, Inc.) and washed with DPBS. Then, 1 ml of cold ethanol was added thereto, and the cells were stored at −30° C. until staining. The cells were washed with DPBS once before staining and left standing with a propidium iodide (PI) solution at room temperature for 30 minutes or longer in the dark. The cells stained with PI were studied for the cell cycle and the rate of cell death indicated by SubG1 using FACS.

MDA-MB-231 cells = test: Cell growth inhibition (number of nuclei, Hoechst 33342) with BLISS score evaluation; format: cell-based, human; settings: 72 hours, Cdc7 inhibitor 19.5 to 10000 nM, MK-1775 7.81 to 1000 nM, FIGS. 12-15
Description: The BLISS scoring is a criterion often used in the evaluation of the synergistic effect of drugs used in combination (Borisy et al., Proc. Natl. Acad. Sci. USA. 100 (13): 7977-7982 (2003); and Buck et al., Mol. Cancer. Ther. 5 (11) (2006)). This BLISS scoring was used to analyze the effect of the Cdc7 inhibitor and the Wee1 inhibitor used in combination on the inhibition of cancer cell growth. […]
After the addition of the compounds, the cells were incubated for 72 hours. […] Then, the number of nuclei (the number of cells) was measured using a cell image analyzer (ArrayScan VTI HCS Reader, Thermo Fischer Scientific, Inc.) (Ex/Em=350/461 nm).
After 72 hours, the average number from the control wells was used as the number of untreated control cells (Gunt72), and the average number from the compound-treated wells was used as the number of compound-treated cells (G72). Wells in which the medium was merely replaced 24 hours after the cell inoculation were counted as an initial value and used as the initial number of cells (G0). […]
Assuming that the first test compound and the second test compound each acted as a single agent (i.e., the rate of cell growth when the concentration of either of the compounds was 0), the theoretical BLISS independence (BLISSin) of each well can be calculated according to the following expression: BLISSin=G(First test compound)×G(Second test compound) […]

[1] = system: Panc-1 cells (pancreatic cancer cell line); test: FACS of PI-stained cells: cell death, Panc-1 cells; format: cell-based; settings: Cdc7 inhibitor 0.1 μM, MK-1775 0.5 and 0.75 μM, FIG. 3
Description: as §1, with “Panc-1 (ATCC, CRL-1469)” for “COLO205 (RCB2127, RIKEN BRC)”, “a D-MEM” for “an RPMI-1640”, “D5796)” for “R8758)”
as §2
as §3, with “The cells stained with PI were studied for the cell cycle and the rate of cell death indicated by SubG1 using FACS.” left out

NHDF cells = test: FACS of PI-stained cells: cell death, normal NHDF cells; format: cell-based; settings: Cdc7 inhibitor 0.1 μM, MK-1775 0.25, 0.5, 0.75 μM, FIG. 2
Description: NHDF cells (Cryo NHDF-NeoCC-2509, manufactured by Sanko Junyaku Co., Ltd.) were cultured in a 10-cm dish using a medium (Brett Kit FGM2, CLCC-3132). The medium was removed from the NHDF cells in a well grown state (70 to 90% confluent), and the cells were washed with 5 mL of HEPES-buffered saline in a subculture reagent set (CLCC-5034, manufactured by Sanko Junyaku Co., Ltd.).
After removal of the HEPES-buffered saline, the whole dish was covered with 3 mL of a trypsin/EDTA solution included in the set. The cells were dissociated from the dish by giving a small impact on the side of the dish with taps of a hand. Then, 3 mL of a trypsin-neutralizing solution included in the set was added to the cells, which were then recovered.
as §2
After the reaction of the cells with the compound for 48 to 72 hours, the cells were dissociated from the well by treatment with trypsin (TrypL Express, manufactured by GIBCO/Thermo Fisher Scientific, Inc.) and washed with DPBS. […]

[2] = Colo205, Cdc7 inhibitor 0.1 μM or 0.3 μM, MK-1775 0.5 μM, FIG. 8

With C=CCn1c(=O)c2cnc(Nc3ccc(N4CCN(C)CC4)cc3)nc2n1-c1cccc(C(C)(C)O)n1 [MK-1775, reference compound] as the compound, how does the “proportion of cells in the M-phase” value (Colo205 cells; MK-1775 0.1 to 1 μM) read?
The value was “increased”.

Which “cell death induced by Cdc7 inhibitor on coadministration with Wee1 inhibitor MK-1775” value (Colo205 cells; Colo205) does the source give for CC(C)OC(=O)C1=C(NN2CCOCC2)OC(=Cc2c[nH]c3ncccc23)C1=O [compound (I-A), isopropyl 5-[(1H-pyrrolo[2,3-b]pyridin-3-yl)methylene]-2-(morpholinoamino)-4-oxo-4,5-dihydrofuran-3-carboxylate] here?
Its value is “synergistically increased”.

Which “cell death on coadministration with MK-1775” value (Colo205 cells; Colo205, compound (I-B) 0.3 μM, FIG. 6) does the source give for CCOC(=O)C1=C(N2CCc3ccc(OC)cc3C2)O/C(=C\c2c[nH]c3ncccc23)C1=O [compound (I-B), ethyl 5-[(1H-pyrrolo[2,3-b]pyridin-3-yl)methylene]-2-(7-methoxy-3,4-dihydroisoquinolin-2(1H)-yl)-4-oxo-4,5-dihydrofuran-3-carboxylate] here?
Its value is “synergistically increased”.

With CC(C)OC(=O)C1=C(NN2CCN(CC(F)(F)F)CC2)O/C(=C\c2c[nH]c3ncccc23)C1=O [compound (I-C), isopropyl 5-[(1H-pyrrolo[2,3-b]pyridin-3-yl)methylene]-4-oxo-2-{[4-(2,2,2-trifluoroethyl)piperazinyl]amino}-4,5-dihydrofuran-3-carboxylate] as the compound, how does the “cell death on coadministration with MK-1775” value (Colo205 cells; Colo205, compound (I-C) 0.1 μM or 0.3 μM, FIG. 7) read?
The value was “synergistically increased”.

For CCOC(=O)C1=C(NN2CCN(CC(F)(F)F)CC2)O/C(=C\c2c[nH]c3ncccc23)C1=O [compound (I-D), ethyl 5-[(1H-pyrrolo[2,3-b]pyridin-3-yl)methylene]-4-oxo-2-{[4-(2,2,2-trifluoroethyl)piperazinyl]amino}-4,5-dihydrofuran-3-carboxylate], which “cell death induced by Cdc7 inhibitor on coadministration with Wee1 inhibitor MK-1775” value (Colo205 cells; Colo205) is on record?
Its value is “synergistically increased”.

And the “cell death on coadministration with Chk1 inhibitor SCH900776” value (Colo205 cells; Colo205)?
The value was “synergistically increased”.

What about the “cell death on coadministration with Chk1 inhibitor UCN-01” value (Colo205 cells; Colo205) of the same compound?
Its value is “synergistically increased”.

And the “cell death on coadministration with Hsp90 inhibitor geldanamycin” value (Colo205 cells; Colo205)?
The value was “synergistically increased”.

What about the “inhibition of cancer cell growth in combined use with MK-1775 (BLISS score)” value (MDA-MB-231 cells) of the same compound?
Its value is “synergistically inhibits”.

What about the “cell death induced by Cdc7 inhibitor on coadministration with MK-1775” value [1] of the same compound?
Its value is “synergistically increased”.

And the “cytotoxicity to normal cells on addition of MK-1775” value (NHDF cells)?
The value was “no increase”.

What does the source list for O=C(OCC1CC1)C1=C(NN2CCOCC2)O/C(=C\c2c[nH]c3ncccc23)C1=O [compound (I-E), cyclopropylmethyl 5-[(1H-pyrrolo[2,3-b]pyridin-3-yl)methylene]-2-(morpholinoamino)-4-oxo-4,5-dihydrofuran-3-carboxylate]?
cell death induced by Cdc7 inhibitor on coadministration with Wee1 inhibitor MK-1775 (Colo205 cells; Colo205): synergistically increased; cell death on coadministration with Chk1 inhibitor SCH900776 (Colo205 cells; Colo205): synergistically increased; cell death on coadministration with Chk1 inhibitor UCN-01 (Colo205 cells; Colo205): synergistically increased; cell death on coadministration with Hsp90 inhibitor geldanamycin (Colo205 cells; Colo205): synergistically increased; cell death on coadministration with MK-1775, varied composition (Colo205 cells; Colo205, compound (I-E):MK-1775 = 1:100 to 3:1 (ratio by μM), FIG. 4): sufficiently synergistically increased; inhibition of cancer cell growth in combined use with MK-1775 (BLISS score) (MDA-MB-231 cells): synergistically inhibits; cell death induced by Cdc7 inhibitor on coadministration with MK-1775 [1]: synergistically increased; cytotoxicity to normal cells on addition of MK-1775 (NHDF cells): no increase

For O=C1NCCc2[nH]c(-c3ccncc3)cc21 [compound (I-F), 2-(pyridin-4-yl)-1,5,6,7-tetrahydro-4H-pyrrolo[3,2-c]pyridinone, reference compound], which “cell death on coadministration with MK-1775” value (Colo205 cells; [2]) is on record?
The value was “synergistically increased”.

For NC(=O)c1cc(-c2ccnc(N)n2)[nH]c1-c1ccc(Cl)cc1Cl [compound (I-G), 5-(2-amino-pyrimidin-4-yl)-2-(2,4-dichloro-phenyl)-1H-pyrrole-3-carboxylic acid amide, reference compound], which “cell death on coadministration with MK-1775” value (Colo205 cells; [2]) is on record?
The value was “synergistically increased”.
